Test results taken from patent US20240382487A1, “NOVEL COPI/ARF1-LIPOLYSIS PATHWAY INHIBITOR AND COMPOUND FOR ERADICATING CANCER STEM CELLS AND INDUCING DAMP-MEDIATED ANTI-TUMOR IMMUNE RESPONSE” (FUDAN UNIVERSITY, priority 2020, published 2024).
Read-outs that look alike come from different tables or passages of the source.

Legend:
lung cancer cells A549 = assay: In vitro cell line screening, A549; assay type: cell-based
Description: In different tumor cytotoxicity experiments in vitro (FIG. 2-FIG. 7), including colorectal cancer cell lines HT29 and LoVo cells, liver cancer cell Huh7, lung cancer cells H460 and A549, the arf1 inhibitor could all inhibit tumor cell growth (FIG. 2-FIG. 6), and there was a dose-dependent manner (FIG. 7).

IL-1β = IL-1β induction, B16-F10 melanoma model; assay type: cell-based; conditions: B16-F10 melanoma model in C57B/6 mice
Description: Example 7. Dulo2 Treatment Induces IL-1 in B16-F10 Melanoma of C57B/6 Mice. (Table 12)

1H-indolo-5-carbaldehyde 5,6,7,8,9,10-hexahydrocycloocta[4,5]thieno[2,3-d]pyrimidin-4-ylhydrazone [Du 102]
tumor suppressive effect (lung cancer cells A549): potency tumor suppressive effect
tumor suppressive effect (lung cancer cells A549; listed as Dul02): effective tumor suppressive effects
IL-1β (IL-1β): 952
